PubChem BioAssay AID248 (DTP/NCI, 2004)
“And” between values parts separate entries of the source, which are not always exact repeats. Equal values may be shown once. Inconclusive results and toxic doses are left out. Rule as the data show it: active = T/C of 150% or more; inactive = T/C below 125%.

System: L1210 leukemia ip in BDF1 mice, survival T/C
Experiment: NCI In Vivo Anticancer Drug Screen. Data for tumor model L1210 Leukemia (intraperitoneal) in B6D2F1 (BDF1) mice
Conditions: endpoint: mean survival time, higher = longer survival
Procedure, shortened: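 Antitumor effect is assessed in tumor-bearing animals. Survival in the compound arm is compared with a vehicle-dosed control arm and expressed as their quotient.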

[1] = dose: 100.0 mg/kg/injection, schedule: Q01DX009 (ip), vehicle: saline with Tween-80
[2] = dose: 200.0 mg/kg/injection, schedule: Q01DX009 (ip), vehicle: saline with Tween-80
[3] = dose: 400.0 mg/kg/injection, schedule: Q01DX009 (ip), vehicle: saline with Tween-80
[4] = dose: 50.0 mg/kg/injection, schedule: Q01DX009 (ip), vehicle: saline
[5] = dose: 100.0 mg/kg/injection, schedule: Q01DX001 (ip), vehicle: saline
[6] = dose: 200.0 mg/kg/injection, schedule: Q01DX001 (ip), vehicle: saline
[7] = dose: 400.0 mg/kg/injection, schedule: Q01DX001 (ip), vehicle: saline
[8] = dose: 100.0 mg/kg/injection, schedule: Q01DX001 (ip), vehicle: carboxymethylcellulose (CMC)
[9] = dose: 100.0 mg/kg/injection, schedule: Q01DX009 (ip), vehicle: Klucel (hydroxypropylcellulose) (HPC)
[10] = dose: 200.0 mg/kg/injection, schedule: Q01DX009 (ip), vehicle: Klucel (hydroxypropylcellulose) (HPC)
[11] = dose: 400.0 mg/kg/injection, schedule: Q01DX009 (ip), vehicle: Klucel (hydroxypropylcellulose) (HPC)
[12] = dose: 100.0 mg/kg/injection, schedule: Q04DX002 (ip), vehicle: Klucel (hydroxypropylcellulose) (HPC)
[13] = dose: 200.0 mg/kg/injection, schedule: Q04DX002 (ip), vehicle: Klucel (hydroxypropylcellulose) (HPC)
[14] = dose: 400.0 mg/kg/injection, schedule: Q04DX002 (ip), vehicle: Klucel (hydroxypropylcellulose) (HPC)
[15] = dose: 50.0 mg/kg/injection, schedule: Q01DX009 (ip), vehicle: saline with Tween-80
[16] = dose: 100.0 mg/kg/injection, schedule: Q04DX003 (ip), vehicle: Klucel (hydroxypropylcellulose) (HPC)
[17] = dose: 200.0 mg/kg/injection, schedule: Q04DX003 (ip), vehicle: Klucel (hydroxypropylcellulose) (HPC)
[18] = dose: 400.0 mg/kg/injection, schedule: Q04DX003 (ip), vehicle: Klucel (hydroxypropylcellulose) (HPC)
[19] = dose: 200.0 mg/kg/injection, schedule: Q01DX001 (ip), vehicle: carboxymethylcellulose (CMC)
[20] = dose: 400.0 mg/kg/injection, schedule: Q01DX001 (ip), vehicle: carboxymethylcellulose (CMC)
[21] = dose: 50.0 mg/kg/injection, schedule: Q01DX001 (ip), vehicle: carboxymethylcellulose (CMC)

Measured: T/C

CC1(C)CCC2=C(O1)c1ccccc1C(=O)C2=O
inactive: dose: 25.0 mg/kg/injection, schedule: Q01DX001 (ip), vehicle: Klucel (hydroxypropylcellulose) (HPC) 102 % of control | dose: 50.0 mg/kg/injection, schedule: Q01DX001 (ip), vehicle: Klucel (hydroxypropylcellulose) (HPC) 98 % of control | dose: 100.0 mg/kg/injection, schedule: Q01DX001 (ip), vehicle: Klucel (hydroxypropylcellulose) (HPC) 94 % of control and 102 % of control

CCCCC(C)C(=O)Nc1cccc(O)c1 (centres undefined)
inactive: [1] 92 % of control | [2] 92 % of control | [3] 90 % of control

CNc1n[n+](-c2ccccc2)no1
inactive: dose: 25.0 mg/kg/injection, schedule: Q01DX009 (ip), vehicle: saline 93 % of control | dose: 25.0 mg/kg/injection, schedule: Q04DX003 (ip), vehicle: saline 111 % of control | [4] 109 % of control | dose: 50.0 mg/kg/injection, schedule: Q04DX003 (ip), vehicle: saline 104 % of control | dose: 100.0 mg/kg/injection, schedule: Q04DX003 (ip), vehicle: saline 97 % of control and 101 % of control

O=c1cnc2ccccc2[nH]1
inactive: dose: 100.0 mg/kg/injection, schedule: Q04DX003 (ip), vehicle: saline with Tween-80 108 % of control | dose: 200.0 mg/kg/injection, schedule: Q04DX003 (ip), vehicle: saline with Tween-80 97 % of control

OC(COc1ccc(Cl)cc1)CN1CCN(c2ccc(Cl)cc2)CC1 (centres undefined)
inactive: [5] 97 % of control | [6] 95 % of control | [7] 95 % of control

CN(CN(C)NC(=O)c1ccccc1)NC(=O)c1ccccc1
inactive: [8] 98 % of control

Cc1cc(S(=O)(=O)Cl)c(Cl)cc1Cl
inactive: [5] 96 % of control | [6] 103 % of control | [7] 96 % of control

CN(C)C=Nc1cc2c(cc1Br)-c1ccccc1C2=O
inactive: [9] 101 % of control | [10] 95 % of control | [11] 93 % of control

CC(=O)Cc1cc(C)nc(/N=C(\N)N2CCOCC2)n1
inactive: [12] 100 % of control | [13] 92 % of control | [14] 88 % of control

CC(C)c1ccccc1SCC1=NCCN1
inactive: dose: 10.0 mg/kg/injection, schedule: Q04DX003 (ip), vehicle: Klucel (hydroxypropylcellulose) (HPC) 103 % of control | dose: 20.0 mg/kg/injection, schedule: Q04DX003 (ip), vehicle: Klucel (hydroxypropylcellulose) (HPC) 115 % of control

COc1ccc(NC(=O)Oc2ccc(Cl)cc2Cl)c(OC)c1
inactive: [9] 114 % of control | [10] 101 % of control

C=C(Cl)C(=O)OCC
inactive: dose: 5.0 mg/kg/injection, schedule: Q01DX009 (ip), vehicle: saline 103 % of control | dose: 5.0 mg/kg/injection, schedule: Q04DX003 (ip), vehicle: saline with Tween-80 93 % of control | dose: 10.0 mg/kg/injection, schedule: Q01DX009 (ip), vehicle: saline 98 % of control | dose: 10.0 mg/kg/injection, schedule: Q04DX003 (ip), vehicle: saline with Tween-80 95 % of control | dose: 20.0 mg/kg/injection, schedule: Q01DX009 (ip), vehicle: saline 104 % of control | dose: 20.0 mg/kg/injection, schedule: Q04DX003 (ip), vehicle: saline with Tween-80 95 % of control

O=S(=O)(F)c1ccc(C[P+](c2ccccc2)(c2ccccc2)c2ccccc2)cc1
inactive: dose: 75.0 mg/kg/injection, schedule: Q01DX001 (ip), vehicle: saline 106 % of control | dose: 150.0 mg/kg/injection, schedule: Q01DX001 (ip), vehicle: saline 105 % of control | dose: 300.0 mg/kg/injection, schedule: Q01DX001 (ip), vehicle: saline 98 % of control

O=[N+]([O-])c1ccc(/C=C/c2ccc(OCc3ccccc3)cc2)cc1Cl
inactive: [12] 96 % of control | [13] 96 % of control | [14] 96 % of control

c1cc2c(c(NC3=NCCCO3)c1)CCCC2
inactive: dose: 12.5 mg/kg/injection, schedule: Q01DX009 (ip), vehicle: saline with Tween-80 95 % of control | dose: 25.0 mg/kg/injection, schedule: Q01DX009 (ip), vehicle: saline with Tween-80 106 % of control | [15] 106 % of control | dose: 50.0 mg/kg/injection, schedule: Q04DX003 (ip), vehicle: saline with Tween-80 101 % of control

COc1ccc(Cl)cc1NC(=O)c1ccccc1C(=O)O
inactive: [9] 98 % of control | [16] 101 % of control | [10] 102 % of control | [17] 96 % of control | [11] 94 % of control | [18] 103 % of control

Cc1cccc2c(C(=O)O)cc(-c3ccc(Cl)cc3)nc12
inactive: [15] 91 % of control

NC(CSSCC(N)C(=O)O)C(=O)O (centres undefined)
inactive: [8] 95 % of control | [16] 93 % of control | [19] 94 % of control | [17] 93 % of control | [20] 95 % of control | [18] 91 % of control

CCC(Cl)COP(=O)(OCC(Cl)CC)OC(C(C)C)P(=O)(OCC(Cl)CC)OCC(Cl)CC (centres undefined)
inactive: [16] 95 % of control | [17] 93 % of control | [18] 90 % of control

Oc1[nH]c(=S)sc1/C=C1\C=Nc2ccccc21
inactive: [21] 90 % of control | [8] 92 % of control | [19] 90 % of control | [20] 90 % of control

Cc1ccc(C2OCC(CCl)O2)cc1 (centres undefined)
inactive: dose: 222.0 mg/kg/injection, schedule: Q01DX Z (ip), vehicle: methylcellulose (MC) 108 % of control | dose: 333.0 mg/kg/injection, schedule: Q01DX Z (ip), vehicle: methylcellulose (MC) 96 % of control | dose: 500.0 mg/kg/injection, schedule: Q01DX Z (ip), vehicle: methylcellulose (MC) 102 % of control

COC(=O)c1[nH]cnc1N
inactive: [21] 97 % of control | [8] 105 % of control | [19] 97 % of control | [20] 94 % of control

Cc1cc(O)c(C)c(C)c1N=Nc1ccccc1
inactive: [1] 101 % of control | dose: 100.0 mg/kg/injection, schedule: Q04DX002 (ip), vehicle: saline with Tween-80 108 % of control | [2] 89 % of control | dose: 200.0 mg/kg/injection, schedule: Q04DX002 (ip), vehicle: saline with Tween-80 90 % of control | [3] 95 % of control | dose: 400.0 mg/kg/injection, schedule: Q04DX002 (ip), vehicle: saline with Tween-80 93 % of control

CCN(Cc1cc(OC)c(OC)c(OC)c1)C1CCCCC1
inactive: [4] 113 % of control | dose: 100.0 mg/kg/injection, schedule: Q01DX009 (ip), vehicle: saline 98 % of control

CC(Oc1cc(Cl)c(Cl)cc1Cl)C(=O)OCc1ccco1 (centres undefined)
inactive: [1] 110 % of control | [12] 100 % of control | [2] 100 % of control | [13] 103 % of control | [3] 104 % of control | [14] 100 % of control

Cc1cc(Cl)c(Cl)cc1NC(=O)c1ccccc1F
inactive: dose: 100.0 mg/kg/injection, schedule: Q01DX001 (ip), vehicle: other 94 % of control | dose: 100.0 mg/kg/injection, schedule: Q01DX009 (ip), vehicle: other 107 % of control and 92 % of control | dose: 100.0 mg/kg/injection, schedule: Q04DX002 (ip), vehicle: other 98 % of control and 102 % of control | dose: 100.0 mg/kg/injection, schedule: Q04DX003 (ip), vehicle: other 98 % of control | dose: 200.0 mg/kg/injection, schedule: Q01DX001 (ip), vehicle: other 92 % of control | dose: 200.0 mg/kg/injection, schedule: Q01DX009 (ip), vehicle: other 90 % of control and 92 % of control | dose: 200.0 mg/kg/injection, schedule: Q04DX002 (ip), vehicle: other 105 % of control and 91 % of control | dose: 200.0 mg/kg/injection, schedule: Q04DX003 (ip), vehicle: other 100 % of control | dose: 400.0 mg/kg/injection, schedule: Q01DX001 (ip), vehicle: other 91 % of control | dose: 400.0 mg/kg/injection, schedule: Q01DX009 (ip), vehicle: other 90 % of control and 92 % of control | dose: 400.0 mg/kg/injection, schedule: Q04DX002 (ip), vehicle: other 100 % of control and 102 % of control | dose: 400.0 mg/kg/injection, schedule: Q04DX003 (ip), vehicle: other 96 % of control
